# Like-named read-outs stand apart in the source and are kept apart here.
# Test system: HCMV
# Type: cell-based
# Conditions: for IRS1 (P09715) protein level / TRS1 (P09695) protein level / UL13 (P16755) protein level / UL36 (P16767) protein level / UL37 (P16778) protein level / UL122 (P19893) protein level / UL123 (P13202) protein level: IE
# Description: In example herpesvirus PRM assay methods shown herein, cell pellets were lysed in 2% SDS, 100 mM NaCl, 0.5 mM EDTA, 50 mM Tris, pH 8.2, and 50 μg of protein was reduced and alkylated with 25 mM TCEP and 50 mM CAM respectively for 20 min at 70° C. Proteins were then precipitated via methanol chloroform precipitation (Wessel & Flugg, Anal Biochem. 138(1):141-143, 1984), resuspended in 50 mM HEPES, pH 8.2 and digested overnight with trypsin (50:1 protein:enzyme w/w ratio). Digested peptides were desalted by SDB-RPS StageTip as previously described (Lum et al., Cell Syst., 7(6):[…], 2018; Greco et al., Methods Mol Biol 1410:39-63, 2016; Federspiel & Cristea, Methods Mol Biol., 1977:115-143, 2019).
# Peptides (1.0 μg on column) were analyzed by LC-MS/MS using a Dionex Ultimate 3000 UHPLC coupled online to an EASYSpray ion source and a Q Exactive HF. Peptides were separated on an EASYSpray C18 column (75 μm×25 cm) heated to 50° C. using a linear gradient of 5% B to 32% B over 60 min at a flow rate of 250 nL/min and were ionized at 1.7 kv. Mobile phase A consisted of 0.1% FA in H2O and mobile phase B consisted of 0.1% FA, 2.9% H2O in ACN.
# The PRM method was controlled by a peptide inclusion list with retention time windows of 6 min for selected precursor ions.
# The PRM assay was developed and analyzed using the open-source software Skyline (Maclean et al., Bioinformatics 26(7):966-968, 2010). Summed area under the curve of 3-4 transitions per peptide was used for quantitation. Targeted peptides were normalized to host protein loading control peptides. Peptide values for each sample were scaled to the average of each peptide across all runs. The average of multiple peptides was used as the inferred value for the protein measurement when more than one peptide was quantified (Federspiel et al., PLoS Biol. 17(9):e3000437. Doi: 10.1371/journal.pbio.3000437). PRM quantitation data were graphed using the Python Seaborn and Matplotlib libraries.
# MRC5 primary human fibroblasts (HFs) (ATCC CCL-171) were used as the model system for HSV-1 and HCMV infections and were cultured in complete growth medium (DMEM supplemented with 10% fetal bovine serum and 1% penicillin-streptomycin antibiotics) at 37° C. and 5% CO2. iSLK.219 cells harboring latent KSHV (a gift from Dr. Britt Glaunsinger, University of California, Berkeley) were grown in complete growth medium supplemented with 500 μg/ml hygromycin (ThermoFisher Scientific, 10687010) at 37° C. and 5% CO2. All cells were used for experiments within a maximum of 10 passages.
# Wild type HSV-1 strain 17+ (a gift from Beate Sodeik, Hannover Medical School, Hannover, Germany) was propagated as previously described (Diner et al., 2015). Briefly, PO stocks were generated by electroporating pBAC-HSV-1 into U-2 OS cells. […] In a similar manner, wild type HCMV strain AD169 was produced from BAC electroporation into HFs and working stocks were propagated by infecting HFs at a low level. In both cases, cell-associated virus was released by sonication, combined with supernatant virus, then concentrated by ultracentrifugation (20,000 rpm, 2 hours, 4° C. with SW28 swinging bucket rotor [Beckman Coulter]) over a 10% ficoll (HSV-1) or 20% sorbitol (HCMV) cushion. Virus stock titers were determined by plaque assay for HSV-1 or tissue culture infectious dose (TCID50) for HCMV and infections were performed at a multiplicity of infection (MOI) of 3.
# 12 hours prior to virus infection or reactivation, cells were treated with either the small molecule drug or DMSO/PBS control at an equivalent volume. […] For infection cycles lasting longer than 24 hours, small molecule drugs were re-added to the cell culture medium every 24 hours. Upon collection, cells were rinsed with PBS, scraped into a microcentrifuge tube, pelleted by centrifugation, and rinsed again with PBS.
structure (smiles),measurement,setting,value
Nc1c(S(=O)(=O)c2ccccc2)c2nc3ccccc3nc2n1-c1ccc(F)cc1 [CAY10602],UL102 (P16827) protein level,"timepoint 48, DE",0.7866
same,UL104 (P16735) protein level,"timepoint 48, DE",0.07399
same,UL112/UL113 (P17151) protein level,"timepoint 48, DE",0.423
same,UL114 (P16769) protein level,"timepoint 48, DE",0.7709
same,UL119/UL118 (P16739) protein level,"timepoint 48, DE",0.3402
same,UL128 (P16837) protein level,"timepoint 48, DE",0.06729
same,US8 (P09730) protein level,"timepoint 48, DE",0.8905
same,US9 (P09729) protein level,"timepoint 48, DE",0.6117
same,US12 (P09721) protein level,"timepoint 48, DE",0.9446
same,US13 (P09720) protein level,"timepoint 48, DE",0.9123
same,US14 (P09719) protein level,"timepoint 48, DE",0.1589
same,US18 (P69334) protein level,"timepoint 48, DE",0.5367
same,US22 (P09722) protein level,"timepoint 48, DE",0.542
same,US23 (P09701) protein level,"timepoint 48, DE",0.4283
same,US24 (P09700) protein level,"timepoint 48, DE",0.42
same,US34 (P09709) protein level,"timepoint 48, DE",0.4118
same,gB (P06473) protein level,"timepoint 48, DE",0.09671
same,IRS1 (P09715) protein level,timepoint 48,0.5813
same,TRS1 (P09695) protein level,timepoint 48,0.446
same,UL13 (P16755) protein level,timepoint 48,0.4405
same,UL36 (P16767) protein level,timepoint 48,0.9117
same,UL37 (P16778) protein level,timepoint 48,0.7557
same,UL122 (P19893) protein level,timepoint 48,0.05121
same,UL123 (P13202) protein level,timepoint 48,0.5672
same,CVC1 (P16799) protein level,"timepoint 48, L",0.1115
same,IR11 (P16809) protein level,"timepoint 48, L",0.3707
same,MCP (P16729) protein level,"timepoint 48, L",0.006609
same,SCP (Q7M6N6) protein level,"timepoint 48, L",0.004793
same,TRM2 (P16792) protein level,"timepoint 48, L",0.05665
same,UL22A (P16845) protein level,"timepoint 48, L",0.1015
same,UL25 (P16761) protein level,"timepoint 48, L",0.0624
same,UL29 (P16764) protein level,"timepoint 48, L",0.7556
same,UL30 (P16765) protein level,"timepoint 48, L",0.1538
same,UL31 (P16848) protein level,"timepoint 48, L",0.1445
same,UL43 (P16781) protein level,"timepoint 48, L",0.04992
same,UL52 (P16793) protein level,"timepoint 48, L",0.05111
same,UL80 (P16753) protein level,"timepoint 48, L",0.03588
same,UL82 (P06726) protein level,"timepoint 48, L",0.1061
same,UL88 (P16731) protein level,"timepoint 48, L",0.08754
same,UL94 (P16800) protein level,"timepoint 48, L",0.07429
same,UL99 (P13200) protein level,"timepoint 48, L",0.05165
same,UL103 (P16734) protein level,"timepoint 48, L",0.1567
same,UL117 (P16770) protein level,"timepoint 48, L",0.383
same,gH (P12824) protein level,"timepoint 48, L",0.06336
same,gL (P16832) protein level,"timepoint 48, L",0.05192
same,gM (P16733) protein level,"timepoint 48, L",0.02415
same,gN (P16795) protein level,"timepoint 48, L",0.1118
same,DUT (P16824) protein level,"timepoint 48, LL",0.2582
same,IR12 (P16810) protein level,"timepoint 48, LL",0.2908
same,TRM3 (P16732) protein level,"timepoint 48, LL",0.01695
same,TRX1 (P16783) protein level,"timepoint 48, LL",0.006112
same,TRX2 (P16728) protein level,"timepoint 48, LL",0.006041
same,UL24 (P16760) protein level,"timepoint 48, LL",0.1155
same,UL40 (P16780) protein level,"timepoint 48, LL",0.63
same,UL47 (P16784) protein level,"timepoint 48, LL",0.02023
same,UL49 (P16786) protein level,"timepoint 48, LL",0.187
same,UL69 (P16749) protein level,"timepoint 48, LL",0.1615
same,UL70 (P17149) protein level,"timepoint 48, LL",0.3937
same,UL83 (P06725) protein level,"timepoint 48, LL",0.02048
same,UL132 (P69338) protein level,"timepoint 48, LL",0.09662
same,US15 (P09718) protein level,"timepoint 48, LL",0.5168
same,CVC2 (P16726) protein level,"timepoint 72, DE",0.03983
same,DBP (P17147) protein level,"timepoint 72, DE",0.391
same,HELI (P16736) protein level,"timepoint 72, DE",0.5709
same,IR01 (P09710) protein level,"timepoint 72, DE",0.2588
same,NEC2 (P16791) protein level,"timepoint 72, DE",0.11
same,RIR1 (P16782) protein level,"timepoint 72, DE",0.1099
same,TRM1 (P16724) protein level,"timepoint 72, DE",0.1317
same,UL4 (P17146) protein level,"timepoint 72, DE",0.06765
same,UL26 (P16762) protein level,"timepoint 72, DE",0.1023
same,UL32 (P08318) protein level,"timepoint 72, DE",0.02678
same,UL34 (P16812) protein level,"timepoint 72, DE",0.09048
same,UL35 (P16766) protein level,"timepoint 72, DE",0.02871
same,UL38 (P16779) protein level,"timepoint 72, DE",0.5839
same,UL44 (P16790) protein level,"timepoint 72, DE",0.07887
same,UL48 (P16785) protein level,"timepoint 72, DE",0.0801
same,UL54 (P08546) protein level,"timepoint 72, DE",0.6639
same,UL71 (P16823) protein level,"timepoint 72, DE",0.3054
same,UL78 (P16751) protein level,"timepoint 72, DE",0.3616
same,UL84 (P16727) protein level,"timepoint 72, DE",0.08785
same,UL95 (P16801) protein level,"timepoint 72, DE",0.157
same,UL96 (P16787) protein level,"timepoint 72, DE",0.2632
same,UL97 (P16788) protein level,"timepoint 72, DE",0.1687
same,UL98 (P16789) protein level,"timepoint 72, DE",0.2967
same,UL102 (P16827) protein level,"timepoint 72, DE",0.7626
same,UL104 (P16735) protein level,"timepoint 72, DE",0.1005
same,UL112/UL113 (P17151) protein level,"timepoint 72, DE",0.3808
same,UL114 (P16769) protein level,"timepoint 72, DE",0.6517
same,UL119/UL118 (P16739) protein level,"timepoint 72, DE",0.4195
same,UL128 (P16837) protein level,"timepoint 72, DE",0.04728
same,US8 (P09730) protein level,"timepoint 72, DE",0.5794
same,US9 (P09729) protein level,"timepoint 72, DE",0.5649
same,US12 (P09721) protein level,"timepoint 72, DE",0.4239
same,US13 (P09720) protein level,"timepoint 72, DE",0.5351
same,US14 (P09719) protein level,"timepoint 72, DE",0.1559
same,US18 (P69334) protein level,"timepoint 72, DE",0.5415
same,US22 (P09722) protein level,"timepoint 72, DE",0.4813
same,US23 (P09701) protein level,"timepoint 72, DE",0.3933
same,US24 (P09700) protein level,"timepoint 72, DE",0.3114
same,US34 (P09709) protein level,"timepoint 72, DE",0.2066
same,gB (P06473) protein level,"timepoint 72, DE",0.1022
same,IRS1 (P09715) protein level,timepoint 72,0.5625
same,TRS1 (P09695) protein level,timepoint 72,0.5284
same,UL13 (P16755) protein level,timepoint 72,0.3604
same,UL36 (P16767) protein level,timepoint 72,0.601
same,UL37 (P16778) protein level,timepoint 72,0.719
same,UL122 (P19893) protein level,timepoint 72,0.05427
same,UL123 (P13202) protein level,timepoint 72,0.4451
same,CVC1 (P16799) protein level,"timepoint 72, L",0.09678

# From US20240027453A1, “METHOD FOR DETECTION AND QUANTITATIVE MONITORING OF INFECTIONS WITH HERPESVIRUSES” (The Trustees of Princeton University, priority 2020, published 2024)
